Measurements: patent US10023564B2, “G protein-coupled receptor kinase 2 inhibitors and methods for use of the same” (THE REGENTS OF THE UNIVERSITY OF MICHIGAN, priority 2014, dated 2018)

target: T1, GRK2 (Homo sapiens (Human), UniProt P25098); assay: GRK2 kinetic assay (phosphorylation of bROS or tubulin, phosphorimaging); assay type: biochemical; details: 50 nM GRK, 5 μM ATP, 5 min reaction
Description: The low salt concentration and DDM were used to maximize GRK activity and disrupt small molecule aggregates from forming, respectively. […] Data was analyzed and inhibition curves were fit via GraphPad Prism.

T1 sequence (P25098 whole entry, species assumed): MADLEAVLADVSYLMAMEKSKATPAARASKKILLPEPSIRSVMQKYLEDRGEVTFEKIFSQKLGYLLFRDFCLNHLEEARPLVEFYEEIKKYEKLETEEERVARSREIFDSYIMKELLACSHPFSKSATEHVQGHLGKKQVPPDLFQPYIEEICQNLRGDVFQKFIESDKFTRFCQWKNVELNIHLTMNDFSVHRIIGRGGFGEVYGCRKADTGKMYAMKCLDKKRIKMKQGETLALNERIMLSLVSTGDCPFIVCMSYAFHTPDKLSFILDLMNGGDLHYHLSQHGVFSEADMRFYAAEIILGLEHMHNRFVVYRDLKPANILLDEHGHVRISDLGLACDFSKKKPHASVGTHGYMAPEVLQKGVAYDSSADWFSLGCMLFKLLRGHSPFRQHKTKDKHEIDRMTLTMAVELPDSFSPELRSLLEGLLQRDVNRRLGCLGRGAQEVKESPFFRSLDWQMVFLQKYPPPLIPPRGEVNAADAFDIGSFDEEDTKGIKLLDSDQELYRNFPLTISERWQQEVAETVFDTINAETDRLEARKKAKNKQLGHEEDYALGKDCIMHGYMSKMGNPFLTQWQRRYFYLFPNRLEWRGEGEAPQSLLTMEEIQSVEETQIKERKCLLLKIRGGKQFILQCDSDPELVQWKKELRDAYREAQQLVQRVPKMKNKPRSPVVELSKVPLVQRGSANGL

SMILES | IC50 [nM]
CC1=C(C(=O)Nc2ccc3[nH]ncc3c2)C(c2ccc(F)c(C(=O)NCc3c(F)cccc3F)c2)NC(=O)N1 (stereo not shown) [Example E02, 4-(3-((2,6-difluorobenzyl)carbamoyl)-4-fluorophenyl)-N-(1H-indazol-5-yl)-6-methyl-2-oxo-1,2,3,4-tetrahydropyrimidine-5-carboxamide] | 120
CC1=C(C(=O)Nc2ccc3[nH]ncc3c2)C(c2ccc(F)c(C(=O)NCc3nccc4ccccc34)c2)NC(=O)N1 (stereo not shown) [Example E08, 4-(4-fluoro-3-((isoquinolin-1-ylmethyl)carbamoyl)phenyl)-N-(1H-indazol-5-yl)-6-methyl-2-oxo-1,2,3,4-tetrahydropyrimidine-5-carboxamide] | 2600
CCC(C)N(C)C(=O)c1cc(C2NC(=O)NC(C)=C2C(=O)Nc2ccc3[nH]ncc3c2)ccc1F (stereo not shown) [Example E19, 4-(3-(sec-butyl(methyl)carbamoyl)-4-fluorophenyl)-N-(1H-indazol-5-yl)-6-methyl-2-oxo-1,2,3,4-tetrahydropyrimidine-5-carboxamide] | 51000
COCc1noc(CNC(=O)c2cc(C3NC(=O)NC(C)=C3C(=O)Nc3ccc4[nH]ncc4c3)ccc2F)n1 (stereo not shown) [Example E24, 4-(4-fluoro-3-(((3-(methoxymethyl)-1,2,4-oxadiazol-5-yl)methyl)carbamoyl)phenyl)-N-(1H-indazol-5-yl)-6-methyl-2-oxo-1,2,3,4-tetrahydropyrimidine-5-carboxamide] | 240
CC1=C(C(=O)Nc2ccc3[nH]ncc3c2)C(c2ccc(F)c(C(=O)N(C)Cc3cc(C)[nH]n3)c2)NC(=O)N1 (stereo not shown) [Example E26, 4-(4-fluoro-3-(methyl((5-methyl-1H-pyrazol-3-yl)methyl)carbamoyl)phenyl)-N-(1H-indazol-5-yl)-6-methyl-2-oxo-1,2,3,4-tetrahydropyrimidine-5-carboxamide] | 1200
CC1=C(C(=O)Nc2ccc3[nH]ncc3c2)C(c2ccc(F)c(CC(=O)N(CCO)Cc3ccco3)c2)NC(=O)N1 (stereo not shown) [Example E32, 4-(4-fluoro-3-(2-((furan-2-ylmethyl)(2-hydroxyethyl)amino)-2-oxoethyl)phenyl)-N-(1H-indazol-5-yl)-6-methyl-2-oxo-1,2,3,4-tetrahydropyrimidine-5-carboxamide] | 500

Now from value to compound:

IC50 [nM] | SMILES
4000 | CC1=C(C(=O)Nc2ccc3[nH]ncc3c2)C(c2ccc(F)c(CCC(=O)NCc3ncc(C)o3)c2)NC(=O)N1 (stereo not shown) [Example E37, 4-(4-fluoro-3-(3-(((5-methyloxazol-2-yl)methyl)amino)-3-oxopropyl)phenyl)-N-(1H-indazol-5-yl)-6-methyl-2-oxo-1,2,3,4-tetrahydropyrimidine-5-carboxamide]
960 | C#CCN(Cc1ccco1)C(=O)Cc1cc(C2NC(=O)NC(C)=C2C(=O)Nc2ccc3[nH]ncc3c2)ccc1F (stereo not shown) [Example E35, 4-(4-fluoro-3-(2-((furan-2-ylmethyl)(prop-2-yn-1-yl)amino)-2-oxoethyl)phenyl)-N-(1H-indazol-5-yl)-6-methyl-2-oxo-1,2,3,4-tetrahydropyrimidine-5-carboxamide]
680 | CC1=C(C(=O)Nc2ccc3[nH]ncc3c2)C(c2ccc(F)c(CC(=O)NCC3CCN(C4CC4)CC3)c2)NC(=O)N1 (stereo not shown) [Example E33, 4-(3-(2-(((1-cyclopropylpiperidin-4-yl)methyl)amino)-2-oxoethyl)-4-fluorophenyl)-N-(1H-indazol-5-yl)-6-methyl-2-oxo-1,2,3,4-tetrahydropyrimidine-5-carboxamide]
1200 | CC1=C(C(=O)Nc2ccc3[nH]ncc3c2)C(c2ccc(F)c(CC(=O)N(C)Cc3nc(C)c[nH]3)c2)NC(=O)N1 (stereo not shown) [Example E34, 4-(4-fluoro-3-(2-(methyl((4-methyl-1H-imidazol-2-yl)methyl)amino)-2-oxoethyl)phenyl)-N-(1H-indazol-5-yl)-6-methyl-2-oxo-1,2,3,4-tetrahydropyrimidine-5-carboxamide]

target: T1, GRK2; assay: not given; details: literature (Setyawan et al. 1999; Tesmer et al. 2010); cited from earlier work

SMILES | GRK2 inhibition potency
O=C(N[C@@H]1CNCCC[C@H]1OC(=O)c1cc(O)c(C(=O)c2c(O)cccc2C(=O)O)c(O)c1)c1ccc(O)cc1 [balanol] | low nanomolar range

target: ROCK1 (Homo sapiens (Human), UniProt Q13464); assay: Rho-associated coiled-coil kinase (ROCK) assay, ADP-Glo system; assay type: biochemical; details: 0.1 μg ROCK1, 1 μg S6K substrate, 100 μM ATP, 60 min
Sequence (Q13464 whole entry, species assumed): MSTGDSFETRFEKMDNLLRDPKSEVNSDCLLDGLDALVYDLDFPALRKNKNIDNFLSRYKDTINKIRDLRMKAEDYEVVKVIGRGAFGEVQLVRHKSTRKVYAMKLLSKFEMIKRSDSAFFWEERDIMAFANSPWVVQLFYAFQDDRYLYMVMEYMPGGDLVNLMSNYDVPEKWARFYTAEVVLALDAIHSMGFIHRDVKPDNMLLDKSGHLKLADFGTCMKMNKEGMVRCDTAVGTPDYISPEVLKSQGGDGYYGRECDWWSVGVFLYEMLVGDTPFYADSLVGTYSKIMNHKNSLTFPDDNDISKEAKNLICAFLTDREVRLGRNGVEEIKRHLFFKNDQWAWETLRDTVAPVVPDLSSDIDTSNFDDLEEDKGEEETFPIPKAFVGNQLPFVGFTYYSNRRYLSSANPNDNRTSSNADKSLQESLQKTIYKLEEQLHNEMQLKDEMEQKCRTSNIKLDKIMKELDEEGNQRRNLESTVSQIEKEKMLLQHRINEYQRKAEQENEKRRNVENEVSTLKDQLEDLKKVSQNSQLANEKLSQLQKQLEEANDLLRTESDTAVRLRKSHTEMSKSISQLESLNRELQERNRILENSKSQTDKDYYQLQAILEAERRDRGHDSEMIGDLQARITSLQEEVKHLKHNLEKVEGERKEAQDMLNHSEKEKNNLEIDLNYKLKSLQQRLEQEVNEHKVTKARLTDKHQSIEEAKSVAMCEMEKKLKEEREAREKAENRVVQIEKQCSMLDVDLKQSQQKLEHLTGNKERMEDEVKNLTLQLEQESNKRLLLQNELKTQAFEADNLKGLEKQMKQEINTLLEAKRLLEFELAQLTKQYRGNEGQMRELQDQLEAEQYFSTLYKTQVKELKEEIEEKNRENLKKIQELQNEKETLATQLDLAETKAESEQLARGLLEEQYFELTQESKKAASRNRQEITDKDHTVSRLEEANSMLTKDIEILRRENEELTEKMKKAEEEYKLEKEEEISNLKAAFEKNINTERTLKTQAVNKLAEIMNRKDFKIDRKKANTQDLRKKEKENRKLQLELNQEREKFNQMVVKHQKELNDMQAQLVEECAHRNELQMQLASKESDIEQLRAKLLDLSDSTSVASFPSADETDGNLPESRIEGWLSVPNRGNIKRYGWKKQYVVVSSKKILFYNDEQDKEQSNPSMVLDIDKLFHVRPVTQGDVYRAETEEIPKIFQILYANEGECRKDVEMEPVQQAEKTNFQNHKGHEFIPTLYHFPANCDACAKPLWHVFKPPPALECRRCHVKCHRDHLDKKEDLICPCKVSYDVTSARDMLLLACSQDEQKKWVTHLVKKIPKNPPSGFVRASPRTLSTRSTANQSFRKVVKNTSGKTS
Description: Rho-associated coiled-coil kinase (ROCK) assays were performed with the ADP-Glo system using 0.1 μg ROCK1 and 1 μg S6K substrate, and 100 μM ATP for 60 min prior to addition of ADP-GLO Reagent, and allowed to incubate for an additional 40 min prior to the addition of the Kinase Detection Reagent and imaging on a PHERASTAR system.

IC50 [nM] | SMILES
61 | CC1=C(C(=O)Nc2ccc3[nH]ncc3c2)C(c2ccc(F)c(C(=O)NCc3c(F)cccc3F)c2)NC(=O)N1 (stereo not shown) [Example E02, 4-(3-((2,6-difluorobenzyl)carbamoyl)-4-fluorophenyl)-N-(1H-indazol-5-yl)-6-methyl-2-oxo-1,2,3,4-tetrahydropyrimidine-5-carboxamide]
17 | CC1=C(C(=O)Nc2ccc3[nH]ncc3c2)C(c2ccc(F)c(C(=O)NCc3nccc4ccccc34)c2)NC(=O)N1 (stereo not shown) [Example E08, 4-(4-fluoro-3-((isoquinolin-1-ylmethyl)carbamoyl)phenyl)-N-(1H-indazol-5-yl)-6-methyl-2-oxo-1,2,3,4-tetrahydropyrimidine-5-carboxamide]
